The numbers were not newly measured in patent US11590090B2, “Acetaminophen formulation with protection against toxic effects of overdose” (Anzen Pharmaceuticals, LLC, priority 2019, dated 2023), which cites them from elsewhere.

This series has as its system cytochrome P450 mixed-function oxygenase system. Conditions: upon ingestion.

For `CC(=O)Nc1ccc(O)cc1` [acetaminophen], the “Fraction metabolized in the liver by cytochrome P450 to NAPQI” value is recorded as “about 5%”.
